According to US20110091387A1, “METHODS AND COMPOSITIONS FOR REDUCING SKIN DAMAGE” (THE GENERAL HOSPITAL CORPORATION, priority 2007, published 2011):

Experiments:
[1] = tested on: HaCaT human keratinocyte cells; experiment: UVB-induced cell death in HaCaT keratinocytes; type: cell-based; settings: 1 and 2.5 μM; UVB 30 mJ/cm^2; 24 hours later; FIG. 4
Procedure: To determine whether RhoE inducing compounds have the protective effect on the UVB damage-mediated cell death, kaempferol-treated (1 and 2.5 μM) HaCaT human keratinocyte cells were exposed to UVB (30 mJ/cm^2), and 24 hours later cell death rate was examined (FIG. 4).

UVB damaged mouse skin = UVB damaged mouse skin treated topically (TUNEL, CPD, phospho-H2AX, RhoE staining); type: in vivo
Procedure: Next, it was investigated whether kaempferol has any protective effect and or DNA repair potential on UVB damaged mouse skin. The dorsal hair of 8-week-old, C57BL/6 mice was trimmed and fine hair was removed by application of a hair-remover, 2 days before UVB exposure. Restrained mice were UVB irradiated at 120 mJ/cm^2 and treated with 0.5 mM kaempferol in 50 μl DMSO or DMSO control. The skin was removed from euthanized mice at various times after UVB exposure, fixed immediately in 4% neutral buffered paraformaldehyde, embedded in OCT, and sectioned at 8-μm thickness. Apoptotic cells were detected in skin sections harvested 16 hours after exposure to UVB, by the terminal nucleotidyl transferase-mediated nick end labeling (TUNEL) assay (Roche Applied Science, Germany) according to the manufacturer's instructions. […] The levels of an activated form of H2AX (Ser139) that is known to be activated and bound at the sites of DNA damage in response to UVB damage were also measured by staining with Anti-Phospho-H2AX (Ser139) antibodies (Upstate Cell Signaling Solutions, New York).

RhoE promoter = RhoE promoter luc2 luciferase reporter screen for inducers of RhoE expression; type: cell-based; settings: luminescence at 24 hours
Procedure: To isolate compounds that can activate RhoE pathway in keratinocytes and protect against UVB exposure, a robust and sensitive chemical genetics approach was developed for the identification of small molecules that induce RhoE expression. Briefly, a reporter construct was created that included the RhoE promoter operatively linked to the luc2 luciferase reporter gene (FIG. 1A). Stable cell lines were produced that expressed the reporter construct, and the cells were plated in 384 well plates at ˜10,000 cells per well. The library test compounds were added to the plated cells at two replicates per compound, and the cells were incubated with the compounds for 24 hours. Luminescence was measured at 24 hours using a plate reader. The data were analyzed using Spotfire.

RhoE = experiment: Western blot of RhoE and p53 expression after kaempferol treatment; type: cell-based; settings: FIG. 3; relative to p53 expression
From the text: FIG. 3 is a Western blot depicting RhoE and p53 expression following treatment with the indicated amounts of kaempferol.

Structure (SMILES): O=c1c(O)c(-c2ccc(O)cc2)oc2cc(O)cc(O)c12 [Kaempferol]
- UVB-induced cell death rate [1]: suppression of UVB-induced cell death
- Apoptosis in epidermis (TUNEL) (UVB damaged mouse skin; 0.5 mM in 50 μl DMSO, UVB 120 mJ/cm^2, 16 hours after exposure, vs DMSO, FIG. 5): inhibited apoptosis induced by UVB damage in epidermis
- Cyclobutane pyrimidine dimer (CPD) formation in epidermis (TDM-2 staining) (UVB damaged mouse skin; 0.5 mM, UVB 120 mJ/cm^2, FIGS. 6A-6C): suppressed pyrimidine dimmer formation
- Levels of activated form of H2AX (Ser139) in skin (UVB damaged mouse skin; 0.5 mM, UVB 120 mJ/cm^2, FIGS. 7A-7C): significantly decreased
- RhoE expression in suprabasal area of epidermis (UVB damaged mouse skin; 0.5 mM, UVB exposure, FIG. 8): enhanced
- Composite Z value (induction of RhoE expression) (RhoE promoter; Table 1, two replicates per compound): 6.2959
- Composite Z (RhoE promoter; Table 2, two replicates): 6.2959
- RhoE expression (Western blot) (RhoE): able to activate RhoE expression in a p53-independent manner
